Tests used:
Listeria monocytogenes [1] = experiment: Antimicrobial activity against Listeria monocytogenes 1.10753 assessed as bacterial killing measured after 16 hrs incubation; assay type: functional
[2] = Antimicrobial activity against Salmonella pullorum C7913 assessed as absence bacterial growth measured after 18 to 24 hrs incubation by NCCLS method; assay type: functional, Salmonella enterica subsp. enterica serovar Pullorum; conditions: Salmonella enterica, time 18-24 hrs
Bacillus cereus [3] = experiment: Antimicrobial activity against Bacillus cereus 1.932 assessed as absence bacterial growth measured after 18 to 24 hrs incubation by NCCLS method; assay type: functional; conditions: time 18-24 hrs
Escherichia coli [4] = experiment: Antimicrobial activity against Escherichia coli 25922 assessed as absence bacterial growth measured after 18 to 24 hrs incubation in presence of KCl by NCCLS method; assay type: functional; conditions: time 18-24 hrs
Escherichia coli [5] = experiment: Antimicrobial activity against Escherichia coli 25922 assessed as absence bacterial growth measured after 18 to 24 hrs incubation by NCCLS method; assay type: functional; conditions: time 18-24 hrs
[6] = Cytotoxicity against human HEK-293T cells assessed as cell survival rate measured after 8 hrs by MTT assay; assay type: toxicity, cell-based
Staphylococcus aureus [7] = experiment: Antimicrobial activity against Staphylococcus aureus 29213 assessed as absence bacterial growth measured after 18 to 24 hrs incubation by NCCLS method; assay type: functional; conditions: time 18-24 hrs
Staphylococcus aureus [8] = experiment: Antimicrobial activity against Staphylococcus aureus 25923 assessed as bacterial killing measured after 16 hrs incubation; assay type: functional
Escherichia coli [9] = experiment: Antimicrobial activity against Escherichia coli K88 assessed as bacterial killing measured after 16 hrs incubation; assay type: functional
Enterococcus faecalis [10] = experiment: Antimicrobial activity against Enterococcus faecalis 29212 assessed as absence bacterial growth measured after 18 to 24 hrs incubation by NCCLS method; assay type: functional; conditions: time 18-24 hrs
Staphylococcus aureus [11] = experiment: Antimicrobial activity against Methicillin-resistant Staphylococcus aureus 43300 assessed as bacterial killing measured after 16 hrs incubation; assay type: functional
Escherichia coli [12] = experiment: Antimicrobial activity against Escherichia coli 25922 assessed as absence bacterial growth measured after 18 to 24 hrs incubation in presence of NH4Cl by NCCLS method; assay type: functional; conditions: time 18-24 hrs
Erythrocyte = experiment: Hemolytic activity in human RBC at effective concentration measured after 1 hr by microplate reader analysis; assay type: toxicity, cell-based
Salmonella typhimurium [13] = experiment: Antimicrobial activity against Salmonella typhimurium C7731 assessed as bacterial killing measured after 16 hrs incubation; assay type: functional, Salmonella enterica subsp. enterica serovar Typhimurium; conditions: Salmonella enterica
Acinetobacter baumannii [14] = experiment: Antimicrobial activity against Acinetobacter baumannii 1.6769 assessed as bacterial killing measured after 16 hrs incubation; assay type: functional
[15] = Hemolytic activity in human RBC at effective concentration at 128 uM measured after 1 hr by microplate reader relative to control; assay type: toxicity, cell-based, Erythrocyte; conditions: human red blood cells (erythrocytes), read-out: Activity
Escherichia coli [16] = experiment: Antimicrobial activity against Escherichia coli 25922 assessed as absence bacterial growth measured after 18 to 24 hrs incubation in presence of NaCl by NCCLS method; assay type: functional; conditions: time 18-24 hrs
Escherichia coli [17] = experiment: Antimicrobial activity against Escherichia coli 25922 assessed as absence bacterial growth measured after 18 to 24 hrs incubation in presence of 25% serum by NCCLS method; assay type: functional; conditions: time 18-24 hrs
Pseudomonas aeruginosa [18] = experiment: Antimicrobial activity against Pseudomonas aeruginosa 27853 assessed as absence bacterial growth measured after 18 to 24 hrs incubation by NCCLS method; assay type: functional; conditions: time 18-24 hrs
Staphylococcus aureus [19] = experiment: Antimicrobial activity against Staphylococcus aureus 29213 assessed as bacterial killing measured after 16 hrs incubation; assay type: functional
Escherichia coli [20] = experiment: Antimicrobial activity against Escherichia coli 25922 assessed as absence bacterial growth measured after 18 to 24 hrs incubation in presence of ZnCl2 by NCCLS method; assay type: functional; conditions: time 18-24 hrs
Salmonella typhimurium [21] = experiment: Antimicrobial activity against Salmonella typhimurium 14028 assessed as bacterial killing measured after 16 hrs incubation; assay type: functional, Salmonella enterica subsp. enterica serovar Typhimurium; conditions: Salmonella enterica
Staphylococcus aureus [22] = experiment: Antimicrobial activity against Staphylococcus aureus 29213 assessed as absence bacterial growth measured after 18 to 24 hrs incubation by NCCLS m; assay type: functional; conditions: time 18-24 hrs
Escherichia coli [23] = experiment: Antimicrobial activity against Escherichia coli K88 assessed as absence bacterial growth measured after 18 to 24 hrs incubation by NCCLS method; assay type: functional; conditions: time 18-24 hrs
[24] = Cytotoxicity against mouse RAW264.7 cells assessed as cell survival rate measured after 8 hrs by MTT assay; assay type: toxicity, cell-based
Pseudomonas aeruginosa [25] = experiment: Antimicrobial activity against Pseudomonas aeruginosa 27853 assessed as bacterial killing measured after 16 hrs incubation; assay type: functional
Enterococcus faecalis [26] = experiment: Antimicrobial activity against Enterococcus faecalis 29212 assessed as bacterial killing measured after 16 hrs incubation; assay type: functional
Listeria monocytogenes [27] = experiment: Antimicrobial activity against Listeria monocytogenes 1.10753 assessed as absence bacterial growth measured after 18 to 24 hrs incubation by NCCLS method; assay type: functional; conditions: time 18-24 hrs
Escherichia coli [28] = experiment: Antimicrobial activity against Escherichia coli 25922 assessed as absence bacterial growth measured after 18 to 24 hrs incubation in presence of MgCl2 by NCCLS method; assay type: functional; conditions: time 18-24 hrs
[29] = tested on: Staphylococcus epidermidis; experiment: Antimicrobial activity against Staphylococcus epidermidis 12228 assessed as bacterial killing measured after 16 hrs incubation; assay type: functional
Acinetobacter baumannii [30] = experiment: Antimicrobial activity against Acinetobacter baumannii 1.6769 assessed as absence bacterial growth measured after 18 to 24 hrs incubation by NCCLS method; assay type: functional; conditions: time 18-24 hrs
Escherichia coli [31] = experiment: Antimicrobial activity against Escherichia coli 25922 assessed as absence bacterial growth measured after 18 to 24 hrs incubation in presence of FeCl3 by NCCLS method; assay type: functional; conditions: time 18-24 hrs
Salmonella typhimurium [32] = experiment: Antimicrobial activity against Salmonella typhimurium 14028 assessed as absence bacterial growth measured after 18 to 24 hrs incubation by NCCLS method; assay type: functional, Salmonella enterica subsp. enterica serovar Typhimurium; conditions: Salmonella enterica, time 18-24 hrs
Escherichia coli [33] = experiment: Antimicrobial activity against Escherichia coli 25922 assessed as bacterial killing measured after 16 hrs incubation; assay type: functional
Staphylococcus aureus [34] = experiment: Antimicrobial activity against Methicillin-resistant Staphylococcus aureus 43300 assessed as absence bacterial growth measured after 18 to 24 hrs incubation by NCCLS method; assay type: functional; conditions: time 18-24 hrs
Escherichia coli [35] = experiment: Antimicrobial activity against Escherichia coli 25922 assessed as absence bacterial growth measured after 18 to 24 hrs incubation in presence of 12.5% serum by NCCLS method; assay type: functional; conditions: time 18-24 hrs
Bacillus cereus [36] = experiment: Antimicrobial activity against Bacillus cereus 1.932 assessed as bacterial killing measured after 16 hrs incubation; assay type: functional
[37] = Antimicrobial activity against Salmonella pullorum C7913 assessed as bacterial killing measured after 16 hrs incubation; assay type: functional, Salmonella enterica subsp. enterica serovar Pullorum; conditions: Salmonella enterica
Salmonella typhimurium [38] = experiment: Antimicrobial activity against Salmonella typhimurium C7731 assessed as absence bacterial growth measured after 18 to 24 hrs incubation by NCCLS method; assay type: functional, Salmonella enterica subsp. enterica serovar Typhimurium; conditions: Salmonella enterica, time 18-24 hrs
Escherichia coli [39] = experiment: Antimicrobial activity against Escherichia coli 25922 assessed as absence bacterial growth measured after 18 to 24 hrs incubation in presence of 50% serum by NCCLS method; assay type: functional; conditions: time 18-24 hrs
[40] = Cytotoxicity against porcine IPEC-J2 cells assessed as cell survival rate measured after 8 hrs by MTT assay; assay type: toxicity, cell-based, Sus scrofa; conditions: pig
[41] = tested on: Staphylococcus epidermidis; experiment: Antimicrobial activity against Staphylococcus epidermidis 12228 assessed as absence bacterial growth measured after 18 to 24 hrs incubation by NCCLS method; assay type: functional; conditions: time 18-24 hrs

H-MKLWLKGGKLWLKGGKLWLKG-NH2
MBC (Listeria monocytogenes [1]): > 32 µM
MIC [2]: 2 µM
MIC (Bacillus cereus [3]): > 32 µM
MIC (Escherichia coli [4]): 4 µM
MIC (Escherichia coli [5]): 4 µM
IC50 at 8 h [6]: > 64 µM
MIC (Staphylococcus aureus [7]): > 32 µM
MBC (Staphylococcus aureus [8]): > 32 µM
MBC (Escherichia coli [9]): 2 µM
MIC (Enterococcus faecalis [10]): > 32 µM
MBC (Staphylococcus aureus [11]): > 32 µM
MIC (Escherichia coli [12]): 4 µM
HC10 (Erythrocyte): 128 µM
MBC (Salmonella typhimurium [13]): 32 µM
MBC (Acinetobacter baumannii [14]): 16 µM
hemolysis at 1 h, 128 µM [15]: < 10%
MIC (Escherichia coli [16]): 16 µM
MIC (Escherichia coli [17]): 32 µM
MIC (Pseudomonas aeruginosa [18]): > 32 µM
MBC (Staphylococcus aureus [19]): > 32 µM
MIC (Escherichia coli [20]): 4 µM
MBC (Salmonella typhimurium [21]): 16 µM
MIC (Staphylococcus aureus [22]): > 32 µM
MIC (Escherichia coli [23]): 1 µM
IC50 at 8 h [24]: > 64 µM
MBC (Pseudomonas aeruginosa [25]): > 32 µM
MBC (Enterococcus faecalis [26]): > 32 µM
MIC (Listeria monocytogenes [27]): > 32 µM
MIC (Escherichia coli [28]): > 32 µM
MBC [29]: > 32 µM
MIC (Acinetobacter baumannii [30]): 8 µM
MIC (Escherichia coli [31]): 4 µM
MIC (Salmonella typhimurium [32]): 16 µM
MBC (Escherichia coli [33]): 4 µM
MIC (Staphylococcus aureus [34]): > 32 µM
MIC (Escherichia coli [35]): 32 µM
MBC (Bacillus cereus [36]): > 32 µM
MBC [37]: 2 µM
MIC (Salmonella typhimurium [38]): 8 µM
MIC (Escherichia coli [39]): > 32 µM
IC50 at 8 h [40]: 41 µM
MIC [41]: > 32 µM

H-VKLWLKGGKLWLKGGKLWLKG-NH2
MBC (Listeria monocytogenes [1]): > 32 µM
MIC [2]: 2 µM
MIC (Bacillus cereus [3]): > 32 µM
MIC (Escherichia coli [4]): 4 µM
MIC (Escherichia coli [5]): 4 µM
IC50 at 8 h [6]: > 64 µM
MIC (Staphylococcus aureus [7]): > 32 µM
MBC (Staphylococcus aureus [8]): > 32 µM
MBC (Escherichia coli [9]): 1 µM
MIC (Enterococcus faecalis [10]): > 32 µM
MBC (Staphylococcus aureus [11]): > 32 µM
MIC (Escherichia coli [12]): 8 µM
HC10 (Erythrocyte): > 128 µM
MBC (Salmonella typhimurium [13]): 32 µM
MBC (Acinetobacter baumannii [14]): 16 µM
hemolysis at 1 h, 128 µM [15]: < 10%
MIC (Escherichia coli [16]): > 32 µM
MIC (Escherichia coli [17]): 32 µM
MIC (Pseudomonas aeruginosa [18]): > 32 µM
MBC (Staphylococcus aureus [19]): > 32 µM
MIC (Escherichia coli [20]): 4 µM
MBC (Salmonella typhimurium [21]): 16 µM
MIC (Staphylococcus aureus [22]): > 32 µM
MIC (Escherichia coli [23]): 1 µM
IC50 at 8 h [24]: > 64 µM
MBC (Pseudomonas aeruginosa [25]): > 32 µM
MBC (Enterococcus faecalis [26]): > 32 µM
MIC (Listeria monocytogenes [27]): > 32 µM
MIC (Escherichia coli [28]): > 32 µM
MBC [29]: > 32 µM
MIC (Acinetobacter baumannii [30]): 4 µM
MIC (Escherichia coli [31]): 4 µM
MIC (Salmonella typhimurium [32]): 8 µM
MBC (Escherichia coli [33]): 16 µM
MIC (Staphylococcus aureus [34]): > 32 µM
MIC (Escherichia coli [35]): 16 µM
MBC (Bacillus cereus [36]): > 32 µM
MBC [37]: 4 µM
MIC (Salmonella typhimurium [38]): 8 µM
MIC (Escherichia coli [39]): > 32 µM
IC50 at 8 h [40]: 60.2 µM
MIC [41]: > 32 µM

H-WKLWLKGGKLWLKGGKLWLKG-NH2
MBC (Listeria monocytogenes [1]): > 32 µM
MIC [2]: 1 µM
MIC (Bacillus cereus [3]): > 32 µM
MIC (Escherichia coli [4]): 8 µM
MIC (Escherichia coli [5]): 4 µM
IC50 at 8 h [6]: > 64 µM
MIC (Staphylococcus aureus [7]): > 32 µM
MBC (Staphylococcus aureus [8]): > 32 µM
MBC (Escherichia coli [9]): 1 µM
MIC (Enterococcus faecalis [10]): > 32 µM
MBC (Staphylococcus aureus [11]): > 32 µM
MIC (Escherichia coli [12]): 8 µM
HC10 (Erythrocyte): 128 µM
MBC (Salmonella typhimurium [13]): 32 µM
MBC (Acinetobacter baumannii [14]): 4 µM
hemolysis at 1 h, 128 µM [15]: < 10%
MIC (Escherichia coli [16]): 16 µM
MIC (Escherichia coli [17]): > 32 µM
MIC (Pseudomonas aeruginosa [18]): 8 µM
MBC (Staphylococcus aureus [19]): 8 µM
MIC (Escherichia coli [20]): 4 µM
MBC (Salmonella typhimurium [21]): 8 µM
MIC (Staphylococcus aureus [22]): > 32 µM
MIC (Escherichia coli [23]): 1 µM
IC50 at 8 h [24]: > 64 µM
MBC (Pseudomonas aeruginosa [25]): 16 µM
MBC (Enterococcus faecalis [26]): > 32 µM
MIC (Listeria monocytogenes [27]): > 32 µM
MIC (Escherichia coli [28]): > 32 µM
MBC [29]: > 32 µM
MIC (Acinetobacter baumannii [30]): 4 µM
MIC (Escherichia coli [31]): 4 µM
MIC (Salmonella typhimurium [32]): 4 µM
MBC (Escherichia coli [33]): 4 µM
MIC (Staphylococcus aureus [34]): 8 µM
MIC (Escherichia coli [35]): > 32 µM
MBC (Bacillus cereus [36]): > 32 µM
MBC [37]: 2 µM
MIC (Salmonella typhimurium [38]): 4 µM
MIC (Escherichia coli [39]): > 32 µM
IC50 at 8 h [40]: 12.9 µM
MIC [41]: 16 µM
